Legend:
Experiment in all cases: relative viability (nuclei count vs DMSO), 5 days (fraction); higher = more cells survive
A549 = system: A549
In short: (§1)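 Relative viability was taken as the ratio of nuclei in treated wells to nuclei in vehicle wells. Lung cancer cell lines in 1536-well plates received compounds by pin tool one day after seeding, either one drug alone or a fixed anchor-drug dose plus five library-drug doses (not always all listed) in √10 steps. Nuclei were counted on 4× images after 5 days of treatment, and values are medians of duplicate plates.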

NCI-H1651 = system: NCI-H1651
In short: as §1

NCI-H1944 = system: NCI-H1944
In short: as §1

NCI-H1648 = system: NCI-H1648
In short: as §1

NCI-H650 = system: NCI-H650
In short: as §1

NCI-H520 = system: NCI-H520
In short: as §1

RERF-LC-KJ = system: RERF-LC-KJ
In short: as §1

NCI-H838 = system: NCI-H838
In short: as §1

CCN(CC)CCCCNc1ncc2cc(-c3cc(OC)cc(OC)c3)c(NC(=O)NC(C)(C)C)nc2n1 + Nc1ncn([C@H]2C[C@H](O)[C@@H](CO)O2)c(=O)n1 [Decitabine] (partner 2 µM)
relative viability (A549; first compound 0.01 µM): 0.27
relative viability (A549; first compound 0.03162 µM): 0.27
relative viability (A549; first compound 0.1 µM): 0.312
relative viability (A549; first compound 0.3162 µM): 0.212
relative viability (A549; first compound 1 µM): 0.288
relative viability (NCI-H1651; first compound 0.01 µM): 0.625
relative viability (NCI-H1651; first compound 0.03162 µM): 0.68
relative viability (NCI-H1651; first compound 0.1 µM): 0.63
relative viability (NCI-H1651; first compound 0.3162 µM): 0.75
relative viability (NCI-H1651; first compound 1 µM): 0.589
relative viability (NCI-H1944; first compound 0.01 µM): 0.489
relative viability (NCI-H1944; first compound 0.03162 µM): 0.435
relative viability (NCI-H1944; first compound 0.1 µM): 0.427
relative viability (NCI-H1944; first compound 0.3162 µM): 0.489
relative viability (NCI-H1944; first compound 1 µM): 0.477
relative viability (NCI-H1648; first compound 0.01 µM): 0.407
relative viability (NCI-H1648; first compound 0.03162 µM): 0.565
relative viability (NCI-H1648; first compound 0.1 µM): 0.499
relative viability (NCI-H1648; first compound 0.3162 µM): 0.417
relative viability (NCI-H1648; first compound 1 µM): 0.383
relative viability (NCI-H650; first compound 0.01 µM): 0.14
relative viability (NCI-H650; first compound 0.03162 µM): 0.272
relative viability (NCI-H650; first compound 0.1 µM): 0.33
relative viability (NCI-H650; first compound 0.3162 µM): 0.332
relative viability (NCI-H650; first compound 1 µM): 0.326
relative viability (NCI-H520; first compound 0.01 µM): 0.51
relative viability (NCI-H520; first compound 0.03162 µM): 0.466
relative viability (NCI-H520; first compound 0.1 µM): 0.501
relative viability (NCI-H520; first compound 0.3162 µM): 0.313
relative viability (NCI-H520; first compound 1 µM): 0.202
relative viability (RERF-LC-KJ; first compound 0.01 µM): 0.697
relative viability (RERF-LC-KJ; first compound 0.03162 µM): 0.687
relative viability (RERF-LC-KJ; first compound 0.1 µM): 0.74
relative viability (RERF-LC-KJ; first compound 0.3162 µM): 0.717
relative viability (RERF-LC-KJ; first compound 1 µM): 0.603
relative viability (NCI-H838; first compound 0.01 µM): 0.481
relative viability (NCI-H838; first compound 0.03162 µM): 0.484
relative viability (NCI-H838; first compound 0.1 µM): 0.428
relative viability (NCI-H838; first compound 0.3162 µM): 0.422
relative viability (NCI-H838; first compound 1 µM): 0.418
